According to patent US6872707B1, “Halo derivatives of 9-deoxo-9a-aza-homerythromycin A” (PLIVA farmaceutska industrija dionicko drustvo, priority 1999, dated 2005):

Legend:
Assay type in all cases: cell-based
[1] = tested on: test microorganisms sensitive to erythromycin; assay: In vitro antibacterial activity against erythromycin-sensitive test microorganisms
Description: (§1) In vitro action of the novel compounds was investigated on a series of standard and resistent test microorganisms. […] In N′-(C1-C6)haloalkylcarbamoyl derivatives similar traits were observed.

resistent strains = assay: In vitro antibacterial activity against resistent strains
Description: as §1

[2] = tested on: S. aureus, E. faecalis and S. pneumoniae; assay: In vitro antibacterial action of haloaryl derivatives on standard and resistent test microorganisms; conditions: comparison within the series
Description: as §1

CC[C@H]1OC(=O)[C@H](C)[C@@H](O[C@H]2C[C@@](C)(OC)[C@@H](O)[C@H](C)O2)[C@H](C)[C@@H](O[C@@H]2O[C@H](C)C[C@H](N(C)C)[C@H]2O)[C@](C)(O)C[C@@H](C)CN(C(=S)Nc2cccc(C(F)(F)F)c2)[C@H](C)[C@@H](O)[C@]1(C)O [Example 21, 9-deoxo-9a-N-{N′-[(3-trifluoromethyl-phenyl)thiocarbamoyl]}-9a-aza-9a-homoerythromycin A]
activity against test microorganisms sensitive to erythromycin [1]: activity against test microorganisms sensitive to erythromycin | activity against resistent strains (resistent strains): showed an activity against resistent strains | antibacterial in vitro activity (effectiveness) [2]: the most active one
